Assay results taken from patent US9085559B2, “Triazine-aryl-bis-indoles and process for preparation thereof” (COUNCIL OF SCIENTIFIC & INDUSTRIAL RESEARCH, priority 2010, dated 2015).

Tests used:
PDE-4 = test: Phosphodiesterase 4 assay ([3H]cAMP SPA), enzyme preparation from rat heart; type: biochemical; settings: PDE-4 activity, dose 10 μg/ml
Method: FIG. 2. […] To examine whether IICT-TA67 inhibits PDE-4 activity in vitro, enzyme preparations were incubated in the absence or presence of different concentrations (1-20 μg/ml) of IICT-TA67 and breakdown of cAMP was monitored by β counter.
Table 1. Measurement of phosphodiesterase (PDE)-4 activity by compounds.
Heart was excised from anesthetized rat and transfer into normal saline solution. […] The homogenate was centrifuged at 500×g for 5 minute at 4° C. Then sup was taken for further centrifuged at 40,000×g for 30 minute (ultra centrifugation). After centrifugation supernatant was collected for phosphodiesterase assay. Protein concentration was estimated and for each assay, 2.5 μg protein (PDE enzyme preparation) was used.
Phosphodiesterase 4 assay: Phosphodiesterase 4 assay was conducted with [^3H] cAMP SPA enzyme assay (GE Amersham, UK) using 2.5 μg enzyme preparation for each well. Into each well 60 μl water, 10 μl assay buffer supplied with the kit, 10 μl compound (inhibitor), 10 μl PDE enzyme or homogenizing buffer (blank) and 10 μl radiolabel led cAMP ([^3H]cAMP, GE Amersham, UK) were added. To check activity of the enzyme without inhibitor 10 μl DMSO was added in place of inhibitor to a separate well. The reaction mixtures were incubated for 30 mi at 30° C. The reaction was stopped by adding 50 μl SPA bead supplied with the kit. It was then mixed well and allowed to stand at room temperature for 20 min. Breakdown of cAMP in each tube was monitored by β counter. The reading in each tube was obtained in counts per minute (CPM). The reading of the blank tube (without enzyme) was subtracted from each tube to normalize the counts. The enzyme activity was calculated by considering the CPM reading without any inhibitor (compound) as 100.

[1] = Pharmacokinetic study, oral and i.v. route; type: in vivo, swiss mice; settings: mouse, in vivo
Method: FIG. 6. Pharmacokinetics of IICT-TA67 through oral route. FIG. 7. Pharmacokinetics of IICT-TA67 through intravenous (i.v) route in mice. IICT-TA67 (20 mg/kg) was administered orally (or 10 mg/kg by i.v. route) as a fine suspension in 1% Gum acacia. Blood samples were drawn from retro-orbital plexus at designated times in pre-labeled heparinised tubes and centrifuged (3500 rpm×10 minutes) to obtain the plasma. Blood samples were collected at 0, 5, 15 and 30 min, and 1, 2, 4, 6, 8, 16 and 24 hrs post-administration after oral/iv route. HPLC determinations were done on Shimadzu chromatograph (Model: LC-10 Atvp equipped with a diode array detector). The Molecule ICT-TA67 was determined at 276 nm using RP-18 column (5 μm×25 cm). Mobile phase consisted of acetonitrile: water (55:45) with a flow rate of 1.0 ml/min.
Animals. Healthy swiss mice of both the sexes (25-30) were used. The animals were kept (3/cage) under controlled conditions (temp 26±2° C.; relative humidity 50±5%; 12 h light/dark cycle) and maintained on pelleted rodent diet (Ashirwad Industries Ltd. Chandigarh, India). Water was provided ad libitum. Institutional Animal Ethics committee approved the animal experiments. Animals were fasted for 16 hours before use.
Step 1: Dosing: IICT-TA67 (20 mg/kg) was administered orally (or 10 mg/kg by i.v.route) as a fine suspension in 1% Gum acacia. Blood samples were drawn from retro-orbital plexus at designated times in pre-labeled heparinised tubes and centrifuged (3500 rpm×10 minutes) to obtain the plasma. Blood samples were collected at 0, 5, 15 and 30 min, and 1, 2, 4, 6, 8, 16 and 24 hrs post-administration after oral/iv route.
Step 2: HPLC determinations: Aliquots of plasma were mixed with acetonitrile (1:2), vortexed for two minutes (2500 rpm) and centrifuge at 5000 rpm for 10 min. The organic layer was collected and evaporated to dryness using solvent evaporator (Model: SPD 111V, Thermo Electron Corporation, MA). The dried samples were reconstituted in mobile phase for HPLC analysis. In a similar manner samples were also prepared from aliquots of plasma collected from untreated animals which were spiked with molecule 67 (0.25 μg-10 μg/ml). […] Reproducibility of the method was defined by both intra-, and inter-day variance. The retention time of Mol. 67 was 10.688 min, at which no other interfering peak was observed. The lower limit of detection (LOD) was 11 ng/ml; limit of quantitation (LOQ) was 32 ng/ml; recovery was 90±2%.
HPLC determinations were done on Shimadzu chromatograph (Model: LC-10 Atvp equipped with a diode array detector). Molecule 67 was determined at 276 nm using RP-18 column (5 μm×25 cm). Mobile phase consisted of acetonitrile: water (55:45) with a flow rate of 1.0 ml/min.
Step 3: Calculating Bioavailability indices: A concentration-time curve for Molecule 67 was established and pharmacokinetic parameters AUC, Cmax, and tmax were determined by a non-compartmental analysis using TOPFIT software package. Absolute bioavailability was determined using the following formula: AUCoral×doseiv/AUCiv×Doseoral.

BALB/c 3T3 cell line = test: Balb/c 3T3 Neutral Red Uptake (NRU) cytotoxicity assay; type: cell-based; settings: NRU cytotoxicity test (FIG. 8)
Text: FIG. 8. IICT-TA67 is not toxic. To evaluate the cytotoxicity of test chemical (IICT-TA67) BALB/c 3T3 cell line was used for Neutral Red Uptake (NRU) cytotoxicity test. The test result has been used to determine IC50 for IICT-TA67 and acute oral toxicity (LD50) in rodent was predicted.
Basal cytotoxicity of IICT-TA67 has been performed to measure IC50 and thereafter predict in vivo acute oral LD50 values in rodent by using Halle's Registry of cytotoxicity (RC) prediction model: log (LD50)=0.435×log (IC50)+0.625 (Halle, 1998; Spielmann et al., 1999). Balb/c 3T3 Neutral Red Dye Uptake (NRU) cytotoxicity assay procedure was adopted (Liebsch & Spielmann 1995). In brief 3T3 cell were grown in 96 well microtitre plates and exposed to IICT-TA-67. After 48-hour incubation, the test material was removed and Neutral red (NR) solution was applied to the cells. The cells were incubated again, the excess NR solution was removed and finally NR was eluted from the cells. The NRU was determined by using a microtitre plate reader to measure the optical density at 540 nm of the eluted dye in 96 well plate. A calculation of cell viability expressed as NRU was made for each concentration of the test chemical by using the mean NRU of 6 replicate values per test concentration. The cell viability value was compared with the mean NRU of all vehicle control values and relative cell viability was then expressed as percent of untreated vehicle control. […] Although the percentage of viability is slightly more than 95% at 50 μg/ml of IICT-67, 30 μg/ml (% viability of cells is 98%)

SMILES	Inhibition % (PDE-4)	bioavailability and pharmacokinetics [1]	toxicity (BALB/c 3T3 cell line)
COc1cc(C(c2cc3ccccc3[nH]2)c2cc3ccccc3[nH]2)ccc1Oc1nc(NC2CC2)nc(NC2CC2)n1 [Compound 1, 2,2′-[2,2′-4-(4,6-bis-cyclopropylamino)-1,3,5-triazin-2-yl-oxy-3-methoxyphenyl]-methylene-bis-1H-indole]	16%	–	–
COc1cc(C(c2cc3ccccc3[nH]2)c2cc3ccccc3[nH]2)ccc1Oc1nc(Nc2ccccc2)nc(Nc2ccccc2)n1 [Compound 2, 2,2′-[2,2′-4-(4,6-bis-anilino)-1,3,5-triazin-2-yl-oxy-3-methoxyphenyl]-methylene-bis-1H-indole]	34%	–	–
COc1cc(C(c2[nH]c3ccccc3c2CC(=O)O)c2[nH]c3ccccc3c2CC(=O)O)ccc1Oc1nc(NC2CC2)nc(NC2CC2)n1 [Compound 3, 2,2′-[2,2′-4-(4,6-bis-cyclopropylamino)-1,3,5-triazin-2-yl-oxy-3-methoxyphenyl]-methylene-bis-(1H-indole-3,3-diyl)-diacetic acid]	42%	–	–
COc1cc(C(c2[nH]c3ccccc3c2CC(=O)O)c2[nH]c3ccccc3c2CC(=O)O)ccc1Oc1nc(Nc2ccccc2)nc(Nc2ccccc2)n1 [Compound 4, 2,2′-[2,2′-4-(4,6-bis-anilino)-1,3,5-triazin-2-yl-oxy-3-methoxyphenyl]-methylene-bis-(1H-indole-3,3-diyl)-diacetic acid]	31%	–	–
COc1ccc(C(c2cc3ccccc3[nH]2)c2cc3ccccc3[nH]2)cc1Oc1nc(NC2CC2)nc(NC2CC2)n1 [Compound 5, 2,2′-[2,2′-3-(4,6-bis-cyclopropylamino)-1,3,5-triazin-2-yl-oxy-4-methoxyphenyl]-methylene-bis-1H-indole]	34%	–	–
COc1ccc(C(c2cc3ccccc3[nH]2)c2cc3ccccc3[nH]2)cc1Oc1nc(Nc2ccccc2)nc(Nc2ccccc2)n1 [Compound 6, 2,2′-[2,2′-3-(4,6-bis-anilino)-1,3,5-triazin-2-yl-oxy-4-methoxyphenyl]-methylene-bis-1H-indole]	45%	–	–
COc1ccc(C(c2[nH]c3ccccc3c2CC(=O)O)c2[nH]c3ccccc3c2CC(=O)O)cc1Oc1nc(Nc2ccccc2)nc(Nc2ccccc2)n1 [Compound 8, 2,2′-[2,2′-3-(4,6-bis-anilino)-1,3,5-triazin-2-yl-oxy-4-methoxyphenyl]-methylene-bis-(1H-indole-3,3-diyl)-diacetic acid]	73%	potentially bioavailable with good pharmacokinetics	potentially non toxic

Continued, in another order:

Inhibition % (PDE-4)	SMILES	bioavailability and pharmacokinetics [1]	toxicity (BALB/c 3T3 cell line)
44%	Clc1nc(NC2CC2)nc(NC2CC2)n1 [Compound 10, 6-Chloro-N^2,N^4-dicyclopropyl-1,3,5-triazine-2,4-diamine]	–	–
53%	Clc1nc(Nc2ccccc2)nc(Nc2ccccc2)n1 [Compound 11, 6-Chloro-N^2,N^4-diphenyl-1,3,5-triazine-2,4-diamine]	–	–
29%	COc1cc(C=O)ccc1Oc1nc(NC2CC2)nc(NC2CC2)n1 [Compound 12, 4-[4,6-Bis-cyclopropylamino-1,3,5-triazin-2-yl-oxy]-3-methoxy benzaldehyde]	–	–
30%	COc1cc(C=O)ccc1Oc1nc(Nc2ccccc2)nc(Nc2ccccc2)n1 [Compound 13, 4-[4,6-Bis-anilino-1,3,5-triazin-2-yl-oxy]-3-methoxy benzaldehyde]	–	–
69%	COc1ccc(C2CNC(=O)C2)cc1OC1CCCC1 (centres unmarked) [Rolipram, reference compound]	–	–
